Laboratory results taken from patent publication US11958831B2, “Pyrazole compounds, pharmaceutical compositions thereof and use thereof” (ARTIVILA (SHENZHEN) INNOVATION CENTER, LTD., priority 2018, dated 2024).

Molecular target: IRAK4 kinase (Homo sapiens (Human), UniProt Q9NWZ3)
Assay: IRAK4 kinase activity assay (mobility shift, Km ATP)
Type: biochemical
Settings: Km ATP (15.6 μM ATP), 1 nM IRAK4, 60 min room temperature
Description: Inhibitory activity (IC50) of the compounds against IRAK4 kinase under Km ATP was detected through mobility spectrum analysis (MSA). IRAK4 kinase was purchased from Carna (Cat. No.: 09-145, batch No.: 14CBS-0020H), and Kinase Substrate 8 was purchased from GL Biochem (Cat. No.: 112396, batch No.: P171207-MJI112396).
The compounds were prepared with DMSO to 100 times the final reaction concentration and diluted to 10 concentrations in sequence at a 3-fold dilution ratio starting from 1 μM. Then 0.25 μL was transferred to a 384-well plate using Echo550. A 1× kinase buffer (50 mM HEPES, pH=7.5, 0.0015% Brij-35, 10 mM MgCl2, 2 mM DTT) was used to prepare a kinase solution of 2.5 times the final concentration. Then 10 μL of the kinase solution of 2.5 times the final concentration was added to each compound well, shaken and mixed uniformly, and incubated at room temperature for 10 min. A 1× kinase buffer was used to prepare a mixed solution of ATP and substrate Kinase Substrate 8 with a concentration of 25/15 times the final concentration. 15 μL of the mixed solution of ATP and the substrate with a concentration of 25/15 times the final concentration were added to each well (the final concentration of IRAK4 kinase was 1 nM, the final concentration of the substrate was 3 μM, and the final concentration of ATP was 15.6 μM), shaken and mixed uniformly, and reacted at room temperature for 60 min. Finally, 30 μL of stopping solution (100 mM HEPES, pH=7.5, 0.0015% Brij-35, 0.2% Coating Reagent #3, 50 mM EDTA) was added to terminate the reaction. CaliperEZ Reader II was used to read data about conversion rates that was then converted into data about inhibition rates. According to the data about the inhibition rate at each concentration, the half maximal inhibitory concentration (IC50) (Table 1) was calculated by a Logit method.

Chain of IRAK4 kinase (Q9NWZ3 whole entry): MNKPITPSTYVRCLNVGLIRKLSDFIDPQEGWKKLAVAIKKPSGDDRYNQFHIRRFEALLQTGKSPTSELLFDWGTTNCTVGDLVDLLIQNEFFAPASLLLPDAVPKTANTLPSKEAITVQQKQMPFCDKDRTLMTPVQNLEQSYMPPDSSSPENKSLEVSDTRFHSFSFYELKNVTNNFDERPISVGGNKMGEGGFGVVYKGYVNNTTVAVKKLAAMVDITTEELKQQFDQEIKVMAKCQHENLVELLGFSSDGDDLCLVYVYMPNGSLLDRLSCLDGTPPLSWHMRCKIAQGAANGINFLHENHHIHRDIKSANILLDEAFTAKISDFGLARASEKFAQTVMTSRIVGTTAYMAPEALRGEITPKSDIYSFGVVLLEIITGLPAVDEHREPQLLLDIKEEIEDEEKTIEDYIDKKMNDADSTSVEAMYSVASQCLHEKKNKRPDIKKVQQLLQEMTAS

Row | Compound | IC50
1 | CC(=O)N1CCC(N2CC(n3cc(NC(=O)c4cccc(-c5cnn(C6(CO)CCC6)c5)n4)c(C(F)F)n3)C2)CC1 [Example 14, N-(1-(1-(1-acetylpiperidin-4-yl)azetidin-3-yl)-3-(difluoromethyl)-1H-pyrazol-4-yl)-6-(1-(1-(hydroxymethyl)cyclobutyl)-1H-pyrazol-4-yl)-2-picolinamide] | 3.2 nM
2 | CC(=O)N1CCC(N2CC(n3cc(NC(=O)c4cccc(-c5cn[nH]c5)n4)c(C(F)F)n3)C2)CC1 [Example 19, N-(1-(1-(1-acetylpiperidin-4-yl)azetidin-3-yl)-3-(difluoromethyl)-1H-pyrazol-4-yl)-6-(1H-pyrazol-4-yl)-2-picolinamide] | 1.9 nM
3 | C[C@H](O)C(=O)N1CCC(N2CC(n3cc(NC(=O)c4cccc(-c5cc[nH]n5)n4)c(C(F)F)n3)C2)CC1 [Example 39, (S)—N-(3-(difluoromethyl)-1-(1-(1-(2-hydroxypropionyl)piperidin-4-yl)azetidin-3-yl)-1H-pyrazol-4-yl)-6-(1H-pyrazol-3-yl)-2-picolinamide] | 0.69 nM
4 | CN(C)C(=O)N1CCC(N2CC(n3cc(NC(=O)c4cccc(-c5cnn(C(C)(C)CN)c5)n4)c(C(F)F)n3)C2)CC1 [Example 17, 6-(1-(1-Amino-2-methylpropan-2-yl)-1H-pyrazol-4-yl)-N-(3-(difluoromethyl)-1-(1-(1-(dimethylcarbamoyl)piperidin-4-yl)azetidin-3-yl)-1H-pyrazol-4-yl)-2-picolinamide] | 0.57 nM
5 | C=CC(=O)N1CCC(N2CC(n3cc(NC(=O)c4cccc(-c5cn[nH]c5)n4)c(C(F)F)n3)C2)CC1 [Example 22, N-(1-(1-(1-acryloylpiperidin-4-yl)azetidin-3-yl)-3-(difluoromethyl)-1H-pyrazol-4-yl)-6-(1H-pyrazol-4-yl)-2-picolinamide] | 2.5 nM
6 | CC(=O)N1CCC(N2CC(n3cc(NC(=O)c4cccc(-c5cnn(C(F)F)c5)n4)c(C(F)F)n3)C2)CC1 [Example 5, N-(1-(1-(1-acetylpiperidin-4-yl)azetidin-3-yl)-3-(difluoromethyl)-1H-pyrazol-4-yl)-6-(1-(difluoromethyl)-1H-pyrazol-4-yl)-2-picolinamide] | 4.3 nM
7 | CS(=O)(=O)N1CCC(N2CC(n3cc(NC(=O)c4cccc(-c5cnn(CC(F)F)c5)n4)c(C(F)F)n3)C2)CC1 [Example 37, 6-(1-(2,2-Difluoroethyl)-1H-pyrazol-4-yl)-N-(3-(difluoromethyl)-1-(1-(1-(methylsulfonyl)piperidin-4-yl)azetidin-3-yl)-1H-pyrazol-4-yl)-2-picolinamide] | 5.8 nM
8 | CN(C)C(=O)N1CCC(N2CC(n3cc(NC(=O)c4cccc(-c5cn[nH]c5)n4)c(C(F)F)n3)C2)CC1 [Example 20, N-(3-(difluoromethyl)-1-(1-(1-(dimethylcarbamoyl)piperidin-4-yl)azetidin-3-yl)-1H-pyrazol-4-yl)-6-(1H-pyrazol-4-yl)-2-picolinamide] | 3.2 nM
9 | CC(=O)N1CCC(N2CC(n3cc(NC(=O)c4cccc(-c5cnn(C(C)(C)CO)c5)n4)c(C(F)F)n3)C2)CC1 [Example 16, N-(1-(1-(1-acetylpiperidin-4-yl)azetidin-3-yl)-3-(difluoromethyl)-1H-pyrazol-4-yl)-6-(1-(1-hydroxy-2-methylpropyl-2-yl)-1H-pyrazol-4-yl)-2-picolinamide] | 1.8 nM
10 | CC(=O)N1CCC(N2CC(n3cc(NC(=O)c4cccc(-c5cnn(C6(CN)CCC6)c5)n4)c(C(F)F)n3)C2)CC1 [Example 11, N-(1-(1-(1-acetylpiperidin-4-yl)azetidin-3-yl)-3-(difluoromethyl)-1H-pyrazol-4-yl)-6-(1-(1-(aminomethyl)cyclobutyl)-1H-pyrazol-4-yl)-2-picolinamide] | 1.6 nM
11 | CS(=O)(=O)N1CCC(N2CC(n3cc(NC(=O)c4cccc(-c5cc[nH]n5)n4)c(C(F)F)n3)C2)CC1 [Example 42, N-(3-(difluoromethyl)-1-(1-(1-(methylsulfonyl)piperidin-4-yl)azetidin-3-yl)-1H-pyrazol-4-yl)-6-(1H-pyrazol-3-yl)-2-picolinamide] | 1.2 nM
12 | CC(=O)N1CCC(N2CC(n3cc(NC(=O)c4cccc(-c5cnn(C6(C#N)CCC6)c5)n4)c(C(F)F)n3)C2)CC1 [Example 10, N-(1-(1-(1-acetylpiperidin-4-yl)azetidin-3-yl)-3-(difluoromethyl)-1H-pyrazol-4-yl)-6-(1-(1-cyanocyclobutyl)-1H-pyrazol-4-yl)-2-picolinamide] | 2 nM
13 | CC(=O)N1CCC(N2CC(n3cc(NC(=O)c4cccc(-c5cnn(C6(C#N)CC6)c5)n4)c(C(F)F)n3)C2)CC1 [Example 9, N-(1-(1-(1-acetylpiperidin-4-yl)azetidin-3-yl)-3-(difluoromethyl)-1H-pyrazol-4-yl)-6-(1-(1-cyanocyclopropyl)-1H-pyrazol-4-yl)-2-picolinamide] | 2.5 nM
14 | COC(=O)N1CCC(N2CC(n3cc(NC(=O)c4cccc(-c5cc[nH]n5)n4)c(C(F)F)n3)C2)CC1 [Example 25, Methyl 4-(3-(4-(6-(1H-pyrazol-3-yl)-2-picolinamide)-3-(difluoromethyl)-1H-pyrazol-1-yl)azetidin-1-yl)piperidine-1-carboxylate] | 0.65 nM
15 | C=CC(=O)N1CCC(N2CC(n3cc(NC(=O)c4cccc(-c5cc[nH]n5)n4)c(C(F)F)n3)C2)CC1 [Example 23, N-(1-(1-(1-acryloylpiperidin-4-yl)azetidin-3-yl)-3-(difluoromethyl)-1H-pyrazol-4-yl)-6-(1H-pyrazol-3-yl)-2-picolinamide] | 0.63 nM
16 | CC(C)C(=O)N1CCC(N2CC(n3cc(NC(=O)c4cccc(-c5cc[nH]n5)n4)c(C(F)F)n3)C2)CC1 [Example 29, N-(3-(difluoromethyl)-1-(1-(1-isobutyrylpiperidin-4-yl)azetidin-3-yl)-1H-pyrazol-4-yl)-6-(1H-pyrazol-3-yl)-2-picolinamide] | 0.81 nM
17 | CC(=O)N1CCC(N2CC(n3cc(NC(=O)c4cccc(-c5cnn(C(C)C)c5)n4)c(C(F)F)n3)C2)CC1 [Example 8, N-(1-(1-(1-acetylpiperidin-4-yl)azetidin-3-yl)-3-(difluoromethyl)-1H-pyrazol-4-yl)-6-(1-isopropyl-1H-pyrazol-4-yl)-2-picolinamide] | 1.9 nM
18 | COC(=O)N1CCC(N2CC(n3cc(NC(=O)c4cccc(-c5cn[nH]c5)n4)c(C(F)F)n3)C2)CC1 [Example 21, Methyl 4-(3-(4-(6-(1H-pyrazol-4-yl)-2-picolinamide)-3-(difluoromethyl)-1H-pyrazol-1-yl)azetidin-1-yl)piperidine-1-carboxylate] | 1.7 nM
19 | C[C@H](O)C(=O)N1CCC(N2CC(n3cc(NC(=O)c4cccc(-c5cnn(CC(F)(F)F)c5)n4)c(C(F)F)n3)C2)CC1 [Example 30, (S)—N-(3-(difluoromethyl)-1-(1-(1-(2-hydroxypropionyl)piperidin-4-yl)azetidin-3-yl)-1H-pyrazol-4-yl)-6-(1-(2,2,2-trifluoroethyl)-1H-pyrazol-4-yl)-2-picolinamide] | 3.3 nM
20 | CCn1cc(-c2cccc(C(=O)Nc3cn(C4CN(C5CCN(C(C)=O)CC5)C4)nc3C(F)F)n2)cn1 [Example 7, N-(1-(1-(1-acetylpiperidin-4-yl)azetidin-3-yl)-3-(difluoromethyl)-1H-pyrazol-4-yl)-6-(1-ethyl-1H-pyrazol-4-yl)-2-picolinamide] | 3.3 nM
